According to PMC7827014, “Synthetic Transition from Thiourea-Based Compounds to Tetrazole Derivatives: Structure and Biological Evaluation of Synthesized New N-(Furan-2-ylmethyl)-1H-tetrazol-5-amine Derivatives” (Molecules, 2021):
Converted amounts (≈) assume the structure as drawn. Read-outs that look alike come from different tables or passages of the source.

What was measured:
[1] = system: Caco-2; test: MTT assay 72 h; assay type: cell-based; settings: Homo sapiens
Protocol: (§1) The cell viability was assessed by using an enzymatic conversion of 3-(4,5-dimethylthiazol-2-yl)-2,5-diphenyltetrazolium bromide salt (MTT) to insoluble formazan crystals by mitochondrial dehydrogenases, occurring in living cells. Cells were cultured in 96-well plates at a density of l × 10^4 cells per well, and cultured to adhere for 24 h at 37 °C in a CO2 incubator. After 24 h of incubation, culture medium was replaced with a fresh medium, then cells were treated with various concentrations of the compounds and incubated for 72 h at 37 °C in a CO2 incubator. Untreated cells were used as the control. Subsequently, MTT solution (0,5 mg/mL in free-serum medium) was added, and samples were incubated for 4 h at 37 °C in a CO2 incubator. Then, the medium was aspirated, and formed formazan crystals were solubilized by adding an isopropanol-DMSO mixture (1:1 vol). The intensity of the dissolved crystals was measured using a UVM 340 reader (ASYS Hitech GmbH, Austria), at a wavelength of 570 nm. Cell viability was presented as a percent of MTT reduced in treated cells versus control cells (incubated without tested compounds). The relative MTT level (%) was calculated as [A]/[B]×100, where [A] is the absorbance of the test sample, and [B] is the absorbance of the control sample containing the untreated cells. The IC50 value was estimated using CalcuSyn version 1.0. […]
(§2) Antiproliferative activity of tested compounds. Data are given as IC50 [µM] and SI.
(§3) Human immortal keratinocyte cell line from adult human skin (HaCaT), Human colorectal adenocarcinoma (CaCo-2), Human epithelial lung carcinoma cell line (A549) and Human melanoma cell line (HTB-140). Data are expressed as mean ± SD. The SI (Selectivity Index) was calculated for each compound using formula: SI = IC50 for normal cel line / IC50 cancer cel line.

[2] = system: A549; test: MTT assay 72 h; assay type: cell-based, human
Protocol: as §1, §2, §3

[3] = system: HTB-140; test: MTT assay 72 h; assay type: cell-based, human; settings: HTB-140, MTT 72 h, mean ± SD
Protocol: as §1, §2, §3

[4] = system: HaCaT; test: MTT assay 72 h; assay type: cell-based, human
Protocol: as §1, §2, §3

[5] = system: M. tuberculosis H37Rv; test: In vitro antitubercular MIC; assay type: cell-based; settings: Mycobacterium tuberculosis, read-out: Minimal inhibitory concentration
[6] = system: M. tuberculosis INH susceptible (Spec. 192); test: In vitro antitubercular MIC; assay type: cell-based; settings: Mycobacterium tuberculosis, read-out: Minimal inhibitory concentration
[7] = system: E. coli ATCC 25922; test: MIC microdilution, standard strain; assay type: cell-based; settings: E. coli ATCC 25922, 18 h, 35 °C
[8] = system: S. epidermidis ATCC 12228; test: MIC microdilution, standard strain; assay type: cell-based
[9] = system: S. aureus NCTC 4163; test: MIC microdilution, standard strain; assay type: cell-based; settings: Staphylococcus aureus
[10] = system: S. aureus ATCC 29213; test: MIC microdilution, standard strain; assay type: cell-based; settings: Staphylococcus aureus
[11] = system: E. coli NCTC 8196; test: MIC microdilution, standard strain; assay type: cell-based; settings: E. coli NCTC 8196, 18 h, 35 °C
[12] = system: E. hirae ATCC 10541; test: MIC microdilution, standard strain; assay type: cell-based
[13] = system: S. epidermidis ATCC 12228; set-up: method as in PMID 30031974; settings: previous project ref 20; cited from earlier work
[14] = system: P. aeruginosa ATCC 27853; set-up: method as in PMID 30031974; settings: previous project ref 20; cited from earlier work
[15] = system: E. hirae ATCC 10541; set-up: method as in PMID 30031974; settings: previous project ref 20; cited from earlier work
[16] = system: S. aureus NCTC 4163; set-up: method as in PMID 30031974; settings: previous project ref 20; cited from earlier work
[17] = system: P. aeruginosa ATCC 15442; set-up: method as in PMID 30031974; settings: previous project ref 20; cited from earlier work
[18] = system: hospital staphylococcal isolates; set-up: method as in PMID 30031974; settings: clinical cocci; cited from earlier work
[19] = system: standard bacterial strains; set-up: method as in PMID 30031974; settings: various standard bacterial strains; cited from earlier work
[20] = Caco-2, MTT 72 h, mean ± SD, read-out: IC50
[21] = Homo sapiens, A549, MTT 72 h, mean ± SD, read-out: IC50
[22] = Homo sapiens, HaCaT normal cells, MTT 72 h, mean ± SD, read-out: IC50
[23] = Staphylococcus epidermidis, ATCC12228, S. epidermidis ATCC 12228, 18 h, 35 °C, read-out: MIC
[24] = Escherichia coli, NCTC8196, read-out: MIC
[25] = Enterococcus hirae, ATCC10541, E. hirae ATCC 10541, 18 h, 35 °C, read-out: MIC
[26] = Escherichia coli, ATCC25922, read-out: MIC
[27] = NCTC4163, S. aureus NCTC 4163, 18 h, 35 °C, read-out: MIC
[28] = ATCC29213, S. aureus ATCC 29213, 18 h, 35 °C, read-out: MIC

SMILES | IC50 [1, 20] [µM] | IC50 [2, 21] [µM] | IC50 ([3]; Homo sapiens) [µM] | IC50 [4, 22] [µM] | MIC [5] [µg/mL] | MIC [6] [µg/mL] | also measured
Fc1cccc(-n2nnnc2NCc2ccco2)c1 [Compound 9, 1-(3-fluorophenyl)-N-(furan-2-ylmethyl)-1H-tetrazol-5-amine] | > 100 | > 100 | > 100 | > 100 | 256 (≈ 987 µM) | 256 (≈ 987 µM) | 
Clc1cccc(-n2nnnc2NCc2ccco2)c1 [Compound 4, 1-(3-chlorophenyl)-N-(furan-2-ylmethyl)-1H-tetrazol-5-amine] | > 100 | > 100 | > 100 | > 100 | > 512 | 512 (≈ 1860 µM) | MIC [7]: >; MIC [8, 23]: 512 µg/mL (≈ 1860 µM); MIC ([9]; NCTC4163, 18 h): 256 µg/mL (≈ 929 µM); MIC ([10]; ATCC29213, 18 h): 256 µg/mL (≈ 929 µM); MIC [11, 24]: 512 µg/mL (≈ 1860 µM); MIC [12, 25]: 512 µg/mL (≈ 1860 µM)
Brc1cccc(-n2nnnc2NCc2ccco2)c1 [Compound 7, 1-(3-bromophenyl)-N-(furan-2-ylmethyl)-1H-tetrazol-5-amine] | > 100 | > 100 | > 100 | > 100 | 512 (≈ 1600 µM) | 512 (≈ 1600 µM) | 
Clc1ccc(-n2nnnc2NCc2ccco2)cc1Cl [Compound 5, 1-(3,4-dichlorophenyl)-N-(furan-2-ylmethyl)-1H-tetrazol-5-amine] | > 100 | > 100 | > 100 | > 100 | > 512 | > 512 | 
Brc1ccccc1-n1nnnc1NCc1ccco1 [Compound 12, 1-(2-bromophenyl)-N-(furan-2-ylmethyl)-1H-tetrazol-5-amine] | > 100 | > 100 | > 100 | > 100 | 512 (≈ 1600 µM) | 512 (≈ 1600 µM) | 
COc1cccc2c1C(=O)c1c(O)c3c(c(O)c1C2=O)C[C@@](O)(C(=O)CO)C[C@@H]3O[C@H]1C[C@H](N)[C@H](O)[C@H](C)O1 [doxorubicin, reference compound] |  |  |  |  |  |  | IC50 ([1]; Caco-2, 72 h): 0.53 µM; IC50 ([2]; Homo sapiens, A549, 72 h): 0.63 µM; IC50 ([4]; Homo sapiens, HaCaT, 72 h): 1.09 µM
N.N.[Cl][Pt][Cl] [cisplatin, reference compound] |  |  |  |  |  |  | IC50 ([2]; A549, MTT 72 h, mean ± SD, read-out: IC50): 1.95 µM; IC50 [3]: 1.13 µM; IC50 ([4]; HaCaT normal cells, MTT 72 h, mean ± SD, read-out: IC50): 2.84 µM
O=C(O)c1cn(C2CC2)c2cc(N3CCNCC3)c(F)cc2c1=O [Ciprofloxacin, reference compound] |  |  |  |  |  |  | MIC ([12]; Enterococcus hirae, ATCC10541, 18 h): 2 µg/mL (≈ 6.04 µM)
Cc1ccc(-n2nnnc2NCc2ccco2)cc1Cl [Ref 1, 1-(3-chloro-4-methylphenyl)-N-(furan-2-ylmethyl)-1H-tetrazol-5-amine] |  |  |  |  |  |  | MIC [13]: 2 µg/mL (≈ 6.9 µM); MIC [14]: 4 µg/mL (≈ 13.8 µM); MIC [15]: 8 µg/mL (≈ 27.6 µM); MIC [16]: 4 µg/mL (≈ 13.8 µM); MIC [17]: 32 µg/mL (≈ 110 µM)
NNC(=O)c1ccncc1 [INH, isoniazid, reference compound] |  |  |  |  | ≤ 0.0625 | ≤ 0.0625 | 
Clc1ccccc1-n1nnnc1NCc1ccco1 [Compound 11, 1-(2-chlorophenyl)-N-(furan-2-ylmethyl)-1H-tetrazol-5-amine] | > 100 | > 100 | > 100 | > 100 | 512 (≈ 1860 µM) | 256 (≈ 929 µM) | 
Fc1ccc(-n2nnnc2NCc2ccco2)cc1 [Compound 1, 1-(4-fluorophenyl)-N-(furan-2-ylmethyl)-1H-tetrazol-5-amine] | > 100 | > 100 | > 100 | > 100 | 256 (≈ 987 µM) | 256 (≈ 987 µM) | MIC [7, 26]: 128 µg/mL (≈ 494 µM); MIC ([8]; Staphylococcus epidermidis, ATCC12228, 18 h): 256 µg/mL (≈ 987 µM); MIC [9, 27]: 64 µg/mL (≈ 247 µM); MIC [10, 28]: 64 µg/mL (≈ 247 µM); MIC [11, 24]: 128 µg/mL (≈ 494 µM)
Fc1ccc(-n2nnnc2NCc2ccco2)cc1Cl [Ref 2, 1-(3-chloro-4-fluorophenyl)-N-(furan-2-ylmethyl)-1H-tetrazol-5-amine] |  |  |  |  |  |  | MIC [13]: 2 µg/mL (≈ 6.81 µM); MIC [14]: 2 µg/mL (≈ 6.81 µM); MICs (range) [18]: 2 to 16 µg/mL; MIC (range) [19]: 0.25 to 4 µg/mL; MIC [15]: 4 µg/mL (≈ 13.6 µM); MIC [16]: 2 µg/mL (≈ 6.81 µM); MIC [17]: 64 µg/mL (≈ 218 µM)
Clc1ccc(-n2nnnc2NCc2ccco2)cc1 [Compound 8, 1-(4-chlorophenyl)-N-(furan-2-ylmethyl)-1H-tetrazol-5-amine] | > 100 | > 100 | > 100 | > 100 | 256 (≈ 929 µM) | 512 (≈ 1860 µM) | MIC [7]: >; MIC ([8]; S. epidermidis ATCC 12228, 18 h, 35 °C): >; MIC [9, 27]: 128 µg/mL (≈ 464 µM); MIC [10, 28]: 128 µg/mL (≈ 464 µM); MIC [11]: >; MIC ([12]; E. hirae ATCC 10541, 18 h, 35 °C): >
Brc1ccc(-n2nnnc2NCc2ccco2)cc1 [Compound 10, 1-(4-bromophenyl)-N-(furan-2-ylmethyl)-1H-tetrazol-5-amine] | > 100 | > 100 | > 100 | > 100 | > 512 | > 512 | 
Cc1ccc(Cl)cc1-n1nnnc1NCc1ccco1 [Compound 2, 1-(5-chloro-2-methylphenyl)-N-(furan-2-ylmethyl)-1H-tetrazol-5-amine] | > 100 | > 100 | > 100 | > 100 | > 512 | > 512 | MIC [7, 26]: 128 µg/mL (≈ 442 µM); MIC [8, 23]: 256 µg/mL (≈ 884 µM); MIC [9, 27]: 64 µg/mL (≈ 221 µM); MIC [10, 28]: 64 µg/mL (≈ 221 µM); MIC [11, 24]: 128 µg/mL (≈ 442 µM); MIC [12, 25]: 64 µg/mL (≈ 221 µM)
